From ChEMBL document CHEMBL1201862, “PubChem BioAssay data set” (2004)
Several values for one entry are separate records, joined by “and”; a condition that tells them apart may be missing. Equal entries are not always repeated. Activity calls are given as the source filed them.

Assays:
[1] = target: T1, Protein skinhead-1 (Caenorhabditis elegans, UniProt P34707); assay type: functional
T1 sequence (P34707 whole entry): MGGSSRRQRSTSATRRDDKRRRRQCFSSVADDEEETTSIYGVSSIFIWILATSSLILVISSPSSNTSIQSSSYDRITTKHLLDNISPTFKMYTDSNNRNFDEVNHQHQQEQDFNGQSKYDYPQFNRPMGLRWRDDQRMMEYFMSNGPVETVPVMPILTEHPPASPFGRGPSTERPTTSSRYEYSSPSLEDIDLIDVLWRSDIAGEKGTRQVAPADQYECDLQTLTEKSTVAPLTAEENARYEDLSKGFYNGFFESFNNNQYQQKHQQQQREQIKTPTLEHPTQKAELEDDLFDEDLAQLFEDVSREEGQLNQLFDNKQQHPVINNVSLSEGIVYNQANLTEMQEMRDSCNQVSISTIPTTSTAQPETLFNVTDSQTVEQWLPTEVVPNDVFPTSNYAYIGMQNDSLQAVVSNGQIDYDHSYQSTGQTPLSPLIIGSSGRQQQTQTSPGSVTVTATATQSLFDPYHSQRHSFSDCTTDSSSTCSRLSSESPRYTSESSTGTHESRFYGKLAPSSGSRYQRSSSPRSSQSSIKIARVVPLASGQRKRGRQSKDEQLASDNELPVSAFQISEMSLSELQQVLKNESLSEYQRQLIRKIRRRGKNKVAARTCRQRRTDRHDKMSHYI

[2] = target: NAD-dependent protein deacylase sirtuin-5, mitochondrial (Homo sapiens, UniProt Q9NXA8); test: sirtuin-5 deacylation blockers, concentration series – biochemical, fluorescence imaging, cherry-pick, set 5, dose response (AID 720591);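 note: desuccinylation of succinyl peptide AMC substrate read as fluorescence after trypsin release; potency of inhibitors that lower fluorescence and may act on trypsin instead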
Sequence of NAD-dependent protein deacylase sirtuin-5, mitochondrial (Q9NXA8 whole entry): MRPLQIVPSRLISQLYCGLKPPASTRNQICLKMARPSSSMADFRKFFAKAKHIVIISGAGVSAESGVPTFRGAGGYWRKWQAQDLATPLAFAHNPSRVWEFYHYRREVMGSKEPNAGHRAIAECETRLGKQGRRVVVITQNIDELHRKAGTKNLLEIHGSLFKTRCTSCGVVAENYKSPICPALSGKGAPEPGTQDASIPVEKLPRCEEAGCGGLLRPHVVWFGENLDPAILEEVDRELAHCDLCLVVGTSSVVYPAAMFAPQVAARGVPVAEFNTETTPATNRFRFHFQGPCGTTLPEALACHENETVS

[3] = system: A549; test: viability loss in A549 cells – cell-based, plate reader, cherry-pick samples, cytotoxicity control, dose response (AID 687028); assay type: functional; conditions: Homo sapiens
[4] = system: HeLa; test: viability loss in HeLa cells – cell-based, ATP luminescence, cherry-pick samples, cytotoxicity control, dose response (AID 687004); assay type: functional; conditions: Homo sapiens
[5] = target: T2, Adenosylmethionine-8-amino-7-oxononanoate aminotransferase (Mycobacterium tuberculosis, UniProt P9WQ81); test: Mycobacterium tuberculosis BioA enzyme inhibitor Measured in Biochemical System Using Plate Reader - 2163-02_Inhibitor_Dose_CherryPick_Activity.; assay type: functional, Mycobacterium tuberculosis UT205
T2 sequence (P9WQ81 whole entry): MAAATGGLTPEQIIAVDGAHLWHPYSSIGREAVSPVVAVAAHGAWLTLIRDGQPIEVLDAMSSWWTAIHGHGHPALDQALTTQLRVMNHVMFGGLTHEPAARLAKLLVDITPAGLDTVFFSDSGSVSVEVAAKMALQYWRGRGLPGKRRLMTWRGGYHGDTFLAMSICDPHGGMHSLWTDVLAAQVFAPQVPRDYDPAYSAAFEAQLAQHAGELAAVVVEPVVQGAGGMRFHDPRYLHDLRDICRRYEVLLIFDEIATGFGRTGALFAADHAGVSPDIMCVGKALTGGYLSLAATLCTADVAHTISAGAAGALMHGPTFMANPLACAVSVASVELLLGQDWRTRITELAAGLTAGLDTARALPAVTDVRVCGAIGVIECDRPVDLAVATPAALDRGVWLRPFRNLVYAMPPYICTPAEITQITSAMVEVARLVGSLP

[6] = HEK293 Cytotoxicity Assay Measured in Cell-Based System Using Plate Reader - 7071-01_Inhibitor_Dose_CherryPick_Activity_Set2.; assay type: functional
[7] = system: HEK293; test: viability loss in HEK293T cells – cell-based, ATP luminescence, cherry-pick samples, cytotoxicity control, dose response (AID 687005); assay type: functional; conditions: Homo sapiens;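 note: cells exposed to compound for 48 hours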
[8] = reduced cellular PGC1a acetyl-lysine signal – cell-based, cherry-picked samples, dose response (AID 720514); assay type: functional;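 note: potency may reflect raised or lowered acetylation signal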
[9] = inhibition of Env-driven cell fusion – HIV entry, plate reader, dry powder, dose response (AID 687023); assay type: functional, cell-based
[10] = viability loss in CEM21 cells – cell-based, plate reader, dry powder, cytotoxicity control, dose response (AID 687026); assay type: functional
[11] = luciferase signal loss, tTA control fusion, HeLa F-luc tTA cells, dry powder, counter-screen for HIV Env fusion inhibitor project, dose response (AID 687021); assay type: functional, cell-based
[12] = inhibitors of non-replicating M. tuberculosis, dose response, luciferase, dry powder (AID 651620); assay type: functional; conditions: Mycobacterium tuberculosis
[13] = inhibitors of non-replicating M. tuberculosis, dose response, luciferase, dry powder (AID 651619); assay type: functional; conditions: Mycobacterium tuberculosis
[14] = HeLa cell viability loss – plate reader, dry powder, cytotoxicity control, dose response (AID 651946); assay type: functional, cell-based
[15] = HEK293 cell viability loss – cherry-picked samples, cytotoxicity control, dose response (AID 1053185); assay type: functional, cell-based
[16] = HepG2 cell viability loss – cherry-picked samples, cytotoxicity control, dose response (AID 1053183); assay type: functional, cell-based
[17] = YAP1 overexpression rescue of CTGF inhibition – DLD1 cells, RT-qPCR, cherry-pick, mechanism study for YAP1 pathway inhibitor project, dose response (AID 1053127); assay type: functional, cell-based; conditions: DLD-1
[18] = Late stage assay provider results from the probe development effort to identify inhibitors of the Plasmodium falciparum M18 Aspartyl Aminopeptidase (M18AAP): radiolabel-based cell-based dose response assay to identify compounds that inhibit P. falciparum growth in RBCs, Set 2..; assay type: functional
[19] = target: Protein Wnt-3a (Mus musculus, UniProt P27467); test: SAR analysis of small molecule antagonists of Gli-SUFU in a Wnt3a luminescent reporter assay.; assay type: functional
Sequence of Protein Wnt-3a (P27467 whole entry): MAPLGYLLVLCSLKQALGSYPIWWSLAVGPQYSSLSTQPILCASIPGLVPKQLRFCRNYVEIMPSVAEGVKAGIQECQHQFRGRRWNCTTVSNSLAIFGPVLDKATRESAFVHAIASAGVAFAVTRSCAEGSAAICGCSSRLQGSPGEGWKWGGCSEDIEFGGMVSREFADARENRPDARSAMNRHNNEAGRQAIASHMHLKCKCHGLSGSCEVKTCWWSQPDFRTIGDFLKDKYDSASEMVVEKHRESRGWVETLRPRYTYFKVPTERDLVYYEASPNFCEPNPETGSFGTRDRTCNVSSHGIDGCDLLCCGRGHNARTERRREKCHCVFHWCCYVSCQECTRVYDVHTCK

[20] = target: NS3 (Hepatitis C virus, UniProt A3EZJ3); test: NS3h DNA-binding inhibition IC50 – biochemical, fluorescence polarization, ChemBridge library, dose response (AID 743264)
Sequence of NS3 (A3EZJ3 whole entry): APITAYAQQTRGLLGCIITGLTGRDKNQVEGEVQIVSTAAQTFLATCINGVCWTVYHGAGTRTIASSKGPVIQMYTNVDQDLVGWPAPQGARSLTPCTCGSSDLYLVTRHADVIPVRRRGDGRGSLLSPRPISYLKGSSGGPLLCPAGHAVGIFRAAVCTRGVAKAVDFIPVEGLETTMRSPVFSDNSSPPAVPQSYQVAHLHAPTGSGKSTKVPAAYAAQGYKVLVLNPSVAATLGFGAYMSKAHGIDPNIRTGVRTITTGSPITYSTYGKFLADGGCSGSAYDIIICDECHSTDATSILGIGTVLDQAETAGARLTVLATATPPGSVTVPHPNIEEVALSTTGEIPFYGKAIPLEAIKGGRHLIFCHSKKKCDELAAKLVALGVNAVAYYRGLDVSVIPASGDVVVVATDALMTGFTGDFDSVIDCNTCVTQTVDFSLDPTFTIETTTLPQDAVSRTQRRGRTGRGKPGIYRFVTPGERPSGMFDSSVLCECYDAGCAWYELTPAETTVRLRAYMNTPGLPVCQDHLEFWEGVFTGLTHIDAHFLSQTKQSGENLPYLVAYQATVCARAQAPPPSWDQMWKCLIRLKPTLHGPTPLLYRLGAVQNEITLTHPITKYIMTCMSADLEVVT

With Fc1ccc(-c2nc3ccc(Cl)cn3c2Cc2ccsc2)cc1 the IC50 [1] was 70.3 µM (inactive) and the AC50 [2] was 25.8 µM (active).

For COc1ccc(S(=O)(=O)N2CCN(CC(=O)NC3CC3)CC2)cc1, the AC50 [3] was 35.1 µM (active).

In the case of O=C(C1CCOCC1)N1CC[C@@H]2[C@H]1c1cc(Br)ccc1N[C@@H]2CO, the AC50 [4] is reported as > 52 µM (inactive) and the AC50 [5] is reported as 4.59 µM (active).

With C[C@@H]1CN([C@@H](C)CO)C(=O)Cc2cc(NC(=O)c3ccncc3)ccc2O[C@H]1CN(C)Cc1ccncc1 the AC50 [6] was > 52 µM (inactive) and the AC50 [7] was > 52 µM (inactive).

With CC(C)CC#Cc1ccc2c(c1)O[C@@H](CN(C)Cc1ccc3c(c1)OCO3)[C@H](C)CN([C@H](C)CO)S2(=O)=O the AC50 [8] was 12.6 µM (active).

For CCOc1ccc(C)cc1S(=O)(=O)NCc1ccncc1, the AC50 [9] was 4.69 µM (active) and 8.19 µM (active), the AC50 [10] was > 70 µM (inactive) and the AC50 [11] was > 70 µM (inactive).

In the case of Clc1ccc(-c2nnc(SCc3cn(-c4ccccc4)nn3)o2)cc1, the IC90 [12] is reported as 1 µM (active), the IC90 [13] is reported as 1 µM (active) and the AC50 [14] is reported as > 52 µM (inactive).

For C[C@H]1CNC(=O)[C@@H](Cc2ccc(C(F)(F)F)cc2)CCn2nncc2COC1, the AC50 [15] was > 52 µM (inactive) and the AC50 [16] was 35.5 µM (active).

In the case of O=C(Nc1ccc(C(F)(F)F)cc1)Nc1ccc2c(c1)[C@H]1C[C@H](CC(=O)N3CCc4ccccc4C3)O[C@@H](CO)[C@H]1O2, the AC50 [17] is reported as > 26 µM (inactive).

In the case of COc1ccc(C2CCN(c3ccnc4ccccc34)C2)cc1OC (stereo not given), the IC50 [18] is reported as 2 µM (active).

In the case of CN(C)c1cc(NC(=O)c2cccc(F)c2)ncn1, the IC50 [19] is reported as > 21.8 µM (inactive).

With Cc1ccc(C(=O)O)cc1-n1c(C)ccc1C the IC50 [20] was 7.6 µM (inactive).
